# In article PMC5218480 (PLoS ONE, 2017):
# System: MV-4-11 cells
# Test: Gene expression microarray analysis (Affymetrix PrimeView) and GSEA
# Format: cell-based, human
# Set-up: RFU PODN (11730768_x_at) / Fold change /veh PODN (11730768_x_at) / RFU LINC00158 (11744669_a_at) / Fold change /veh LINC00158 (11744669_a_at) / RFU DUSP10 (11751237_a_at) / Fold change /veh DUSP10 (11751237_a_at) / RFU ID3 (11757404_x_at) / Fold change /veh ID3 (11757404_x_at) / RFU PLEKHG5 (11737974_s_at) / Fold change /veh PLEKHG5 (11737974_s_at) / RFU LRRC4B (11730491_at) / Fold change /veh LRRC4B (11730491_at) / RFU GIMAP4 (11747438_a_at) / Fold change /veh GIMAP4 (11747438_a_at) / RFU KRT8 (11758183_x_at) / Fold change /veh KRT8 (11758183_x_at) / RFU CNN1 (11734310_a_at) / Fold change /veh CNN1 (11734310_a_at) / RFU VPS37D (11726825_at) / Fold change /veh VPS37D (11726825_at) / RFU C10orf10 (11716522_x_at) / Fold change /veh C10orf10 (11716522_x_at) / RFU KIR2DL2 /// KIR2DL4 /// KIR2DL5A /// KIR2DL5B /// KIR2DS1 /// KIR2DS2 /// KIR2DS3 /// KIR2DS4 /// KIR3DL3 /// KIR3DL3 /// KIR3DS1 (11738374_at) / Fold change /veh KIR2DL2 /// KIR2DL4 /// KIR2DL5A /// KIR2DL5B /// KIR2DS1 /// KIR2DS2 /// KIR2DS3 /// KIR2DS4 /// KIR3DL3 /// KIR3DL3 /// KIR3DS1 (11738374_at) / RFU C1QL1 (11718748_at) / Fold change /veh C1QL1 (11718748_at) / RFU TMPRSS4 (11747572_a_at) / Fold change /veh TMPRSS4 (11747572_a_at) / RFU HAMP (11756126_x_at) / Fold change /veh HAMP (11756126_x_at) / RFU RNFT2 (11725882_a_at) / Fold change /veh RNFT2 (11725882_a_at) / RFU NR4A2 (11747474_a_at) / Fold change /veh NR4A2 (11747474_a_at) / RFU ABCC12 (11746883_a_at) / Fold change /veh ABCC12 (11746883_a_at) / RFU TMEM136 (11760407_x_at) / Fold change /veh TMEM136 (11760407_x_at) / RFU CLDN22 /// WWC2 (11732394_at) / Fold change /veh CLDN22 /// WWC2 (11732394_at) / RFU HLA-DPB1 (11760878_x_at) / Fold change /veh HLA-DPB1 (11760878_x_at) / RFU SPINT1 (11716480_a_at) / Fold change /veh SPINT1 (11716480_a_at) / RFU GAP43 (11754022_s_at) / Fold change /veh GAP43 (11754022_s_at) / RFU A4GNT (11735810_at) / Fold change /veh A4GNT (11735810_at) / RFU PRB3 (11715151_x_at) / Fold change /veh PRB3 (11715151_x_at) / RFU TUBB4B (11761932_at) / Fold change /veh TUBB4B (11761932_at) / RFU CAPN14 (11732068_a_at) / Fold change /veh CAPN14 (11732068_a_at) / RFU TMCC2 (11721928_a_at) / Fold change /veh TMCC2 (11721928_a_at) / RFU IRGQ (11745062_a_at) / Fold change /veh IRGQ (11745062_a_at) / RFU FAM174B (11720279_a_at) / Fold change /veh FAM174B (11720279_a_at) / RFU TMPRSS4 (11748680_a_at) / Fold change /veh TMPRSS4 (11748680_a_at) / RFU FAM212B (11763350_a_at) / Fold change /veh FAM212B (11763350_a_at) / RFU PLEKHG5 (11743358_a_at) / Fold change /veh PLEKHG5 (11743358_a_at) / RFU ZSCAN30 (11745921_a_at) / Fold change /veh ZSCAN30 (11745921_a_at) / RFU CMKLR1 (11741424_a_at) / Fold change /veh CMKLR1 (11741424_a_at) / RFU LOC101060620 /// MAPK8IP1 (11723275_at) / Fold change /veh LOC101060620 /// MAPK8IP1 (11723275_at) / RFU SPTSSB (11747773_x_at) / Fold change /veh SPTSSB (11747773_x_at) / RFU PRSS12 (11739890_at) / Fold change /veh PRSS12 (11739890_at) / RFU BIN1 (11741810_x_at) / Fold change /veh BIN1 (11741810_x_at) / RFU WNT11 (11732464_a_at) / Fold change /veh WNT11 (11732464_a_at) / RFU C10orf10 (11716521_a_at) / Fold change /veh C10orf10 (11716521_a_at) / RFU C5orf56 (11738089_at) / Fold change /veh C5orf56 (11738089_at) / RFU CYB561 (11721691_x_at) / Fold change /veh CYB561 (11721691_x_at) / RFU ANKRD19P (11752326_a_at) / Fold change /veh ANKRD19P (11752326_a_at) / RFU OR2T12 /// OR2T33 /// OR2T8 (11738714_s_at) / Fold change /veh OR2T12 /// OR2T33 /// OR2T8 (11738714_s_at) / RFU VCAN (11748164_a_at) / Fold change /veh VCAN (11748164_a_at) / RFU JSRP1 (11732532_at) / Fold change /veh JSRP1 (11732532_at) / RFU KRTAP10-11 (11738290_x_at) / Fold change /veh KRTAP10-11 (11738290_x_at) / RFU MYO3A (11730013_a_at) / Fold change /veh MYO3A (11730013_a_at) / RFU EBF3 (11725865_a_at) / Fold change /veh EBF3 (11725865_a_at) / RFU CAMK2N1 (11719241_x_at) / Fold change /veh CAMK2N1 (11719241_x_at) / RFU C5orf56 (11738088_a_at) / Fold change /veh C5orf56 (11738088_a_at) / RFU OLFML3 (11715873_a_at) / Fold change /veh OLFML3 (11715873_a_at) / RFU LOC100653217 /// NTM (11731650_a_at) / Fold change /veh LOC100653217 /// NTM (11731650_a_at) / RFU MAPK11 (11762145_a_at) / Fold change /veh MAPK11 (11762145_a_at) / RFU FIZ1 (11724087_x_at) / Fold change /veh FIZ1 (11724087_x_at) / RFU OASL (11726364_x_at) / Fold change /veh OASL (11726364_x_at) / RFU SOX15 (11748057_x_at) / Fold change /veh SOX15 (11748057_x_at) / RFU CD79A (11719716_a_at) / Fold change /veh CD79A (11719716_a_at) / RFU HIST1H1D (11736915_at) / Fold change /veh HIST1H1D (11736915_at) / RFU CASKIN2 (11723855_a_at) / Fold change /veh CASKIN2 (11723855_a_at) / RFU LOC730098 (11760151_x_at) / Fold change /veh LOC730098 (11760151_x_at) / RFU OR4N2 (11742367_at) / Fold change /veh OR4N2 (11742367_at) / RFU PRRT2 (11749266_a_at) / Fold change /veh PRRT2 (11749266_a_at) / RFU SNX32 (11753110_a_at) / Fold change /veh SNX32 (11753110_a_at) / RFU CDHR5 (11726645_a_at) / Fold change /veh CDHR5 (11726645_a_at) / RFU RCAN1 (11760418_a_at) / Fold change /veh RCAN1 (11760418_a_at) / RFU FAM167A (11723789_a_at) / Fold change /veh FAM167A (11723789_a_at) / RFU FAM26E (11764081_at) / Fold change /veh FAM26E (11764081_at) / RFU ISYNA1 (11749810_s_at) / Fold change /veh ISYNA1 (11749810_s_at) / RFU ACY1 (11761880_at) / Fold change /veh ACY1 (11761880_at) / RFU 11764098_at / Fold change /veh 11764098_at / RFU SAMD14 (11745864_x_at) / Fold change /veh SAMD14 (11745864_x_at) / RFU NPB (11741838_a_at) / Fold change /veh NPB (11741838_a_at) / RFU TMPRSS6 (11731388_a_at) / Fold change /veh TMPRSS6 (11731388_a_at) / RFU KRTAP10-2 (11738614_at) / Fold change /veh KRTAP10-2 (11738614_at) / RFU ARHGAP8 /// PRR5-ARHGAP8 (11727945_x_at) / Fold change /veh ARHGAP8 /// PRR5-ARHGAP8 (11727945_x_at) / RFU KRTAP5-7 /// NADSYN1 (11734609_at) / Fold change /veh KRTAP5-7 /// NADSYN1 (11734609_at) / RFU RASL12 (11751679_a_at) / Fold change /veh RASL12 (11751679_a_at) / RFU CDKN2B (11736163_a_at) / Fold change /veh CDKN2B (11736163_a_at) / RFU PRF1 (11729649_at) / Fold change /veh PRF1 (11729649_at) / RFU, ZNF638 /// ZNF638-IT1 / Fold change vs veh, ZNF638 /// ZNF638-IT1 / RFU, PANK3 / Fold change vs veh, PANK3 / RFU, SH3YL1 / Fold change vs veh, SH3YL1 / RFU, ZEB2 / Fold change vs veh, ZEB2 / RFU, NRIP1 / Fold change vs veh, NRIP1 / RFU, PTTG1IP / Fold change vs veh, PTTG1IP / RFU, CAPN2 / Fold change vs veh, CAPN2 / RFU, MED14 / Fold change vs veh, MED14 / RFU, SNORA58 / Fold change vs veh, SNORA58 / RFU, C1orf63 / Fold change vs veh, C1orf63 / RFU, LRRFIP1 / Fold change vs veh, LRRFIP1 / RFU, NDUFAF7 / Fold change vs veh, NDUFAF7 / RFU, SLC12A2 / Fold change vs veh, SLC12A2 / RFU, IBTK / Fold change vs veh, IBTK / RFU, ESF1 / Fold change vs veh, ESF1 / Fold change vs veh, TMEM50B / RFU, TAOK1 / Fold change vs veh, TAOK1 / RFU, ACBD3 / Fold change vs veh, ACBD3 / RFU, TMA16 / Fold change vs veh, TMA16 / RFU, RWDD3 / Fold change vs veh, RWDD3 / RFU, BCAT1 / Fold change vs veh, BCAT1 / RFU, EDEM3 / Fold change vs veh, EDEM3 / RFU, TMEM33 / Fold change vs veh, TMEM33 / RFU, WDR75 / Fold change vs veh, WDR75 / RFU, AHCTF1 / Fold change vs veh, AHCTF1 / RFU, TFRC / Fold change vs veh, TFRC / RFU, ZDHHC17 / Fold change vs veh, ZDHHC17 / RFU, NOM1 / Fold change vs veh, NOM1 / RFU, ARL8B / Fold change vs veh, ARL8B / RFU, ZBTB11 / Fold change vs veh, ZBTB11 / RFU, TAMM41 / Fold change vs veh, TAMM41 / RFU, KIAA1704 /// LOC100996395 / Fold change vs veh, KIAA1704 /// LOC100996395 / RFU, ING1 / Fold change vs veh, ING1 / RFU, TRMT61B / Fold change vs veh, TRMT61B / RFU, FUBP3 / Fold change vs veh, FUBP3 / RFU, TP53 / Fold change vs veh, TP53 / RFU, TNKS2 / Fold change vs veh, TNKS2 / RFU, ZFP14 / Fold change vs veh, ZFP14 / RFU, ACTR2 / Fold change vs veh, ACTR2 / RFU, PPP3R1 / Fold change vs veh, PPP3R1 / RFU, PIK3R1 / Fold change vs veh, PIK3R1 / RFU, HNRNPA1 / Fold change vs veh, HNRNPA1 / RFU, RNF170 / Fold change vs veh, RNF170 / RFU, ZNF28 / Fold change vs veh, ZNF28 / RFU, RNGTT / Fold change vs veh, RNGTT / RFU, OGT / Fold change vs veh, OGT / RFU, BRD1 / Fold change vs veh, BRD1 / RFU, MARS / Fold change vs veh, MARS / RFU, ZNF655 / Fold change vs veh, ZNF655 / RFU, FAHD1 / Fold change vs veh, FAHD1 / RFU, BDP1 / Fold change vs veh, BDP1 / RFU, LRRCC1 / Fold change vs veh, LRRCC1 / RFU, ARID1A / Fold change vs veh, ARID1A / RFU, ZNF146 / Fold change vs veh, ZNF146 / RFU, ZNF330 / Fold change vs veh, ZNF330 / RFU, GPN3 / Fold change vs veh, GPN3 / RFU, C9orf123 / Fold change vs veh, C9orf123 / RFU, N4BP2L2 / Fold change vs veh, N4BP2L2 / RFU, ARFIP1 / Fold change vs veh, ARFIP1 / RFU, FAM179B / Fold change vs veh, FAM179B / RFU, BCL10 / Fold change vs veh, BCL10 / RFU, UHRF1BP1L / Fold change vs veh, UHRF1BP1L / RFU, BET1 / Fold change vs veh, BET1 / RFU, CNOT2 / Fold change vs veh, CNOT2 / RFU, ZNF268 / Fold change vs veh, ZNF268 / Fold change vs veh, ZNF507 / RFU, DGCR2 / Fold change vs veh, DGCR2 / RFU, WDSUB1 / Fold change vs veh, WDSUB1 / Fold change vs veh, HSP90B1 /// MIR3652 / RFU, ADSS / Fold change vs veh, ADSS / RFU, GK / Fold change vs veh, GK / RFU, ZNF148 / Fold change vs veh, ZNF148 / RFU, TAF9 / Fold change vs veh, TAF9 / RFU, SLC1A5 / Fold change vs veh, SLC1A5 / RFU, SLMO2 / Fold change vs veh, SLMO2 / RFU, ABCC4 / Fold change vs veh, ABCC4 / RFU, LOC101060439 /// RAP1B / Fold change vs veh, LOC101060439 /// RAP1B / RFU, RFX7 / Fold change vs veh, RFX7 / RFU, GTPBP10 / Fold change vs veh, GTPBP10 / RFU, CNEP1R1 / Fold change vs veh, CNEP1R1 / RFU, BIVM-ERCC5 /// ERCC5 / Fold change vs veh, BIVM-ERCC5 /// ERCC5 / RFU, ILF3 / Fold change vs veh, ILF3 / RFU 11762660_at / Fold change /veh 11762660_at / RFU VCAN (11757783_s_at) / Fold change /veh VCAN (11757783_s_at) / RFU DDX43 (11728927_at) / Fold change /veh DDX43 (11728927_at) / RFU KRT8 (11758188_x_at) / Fold change /veh KRT8 (11758188_x_at) / RFU NKD1 (11759106_at) / Fold change /veh NKD1 (11759106_at) / RFU SRD5A1 (11742802_a_at) / Fold change /veh SRD5A1 (11742802_a_at) / RFU TPSAB1 /// TPSB2 (11721975_s_at) / Fold change /veh TPSAB1 /// TPSB2 (11721975_s_at) / RFU GSTM3 (11746129_a_at) / Fold change /veh GSTM3 (11746129_a_at) / RFU IL23R (11737362_x_at) / Fold change /veh IL23R (11737362_x_at) / RFU TMEM51 (11727254_a_at) / Fold change /veh TMEM51 (11727254_a_at) / RFU PIWIL2 (11732686_x_at) / Fold change /veh PIWIL2 (11732686_x_at) / RFU ORM1 (11744905_x_at) / Fold change /veh ORM1 (11744905_x_at) / RFU CCDC152 (11743942_at) / Fold change /veh CCDC152 (11743942_at) / RFU ECM1 (11717891_a_at) / Fold change /veh ECM1 (11717891_a_at) / RFU IL23R (11748794_a_at) / Fold change /veh IL23R (11748794_a_at) / RFU TNFAIP8L3 (11732012_x_at) / Fold change /veh TNFAIP8L3 (11732012_x_at) / RFU MBOAT4 (11741988_at) / Fold change /veh MBOAT4 (11741988_at) / RFU 11764193_at / Fold change /veh 11764193_at / RFU TMEM53 (11763286_at) / Fold change /veh TMEM53 (11763286_at) / RFU MAGEB2 (11727129_at) / Fold change /veh MAGEB2 (11727129_at) / RFU TMEM200A (11744735_a_at) / Fold change /veh TMEM200A (11744735_a_at) / RFU CCDC152 (11751479_a_at) / Fold change /veh CCDC152 (11751479_a_at) / RFU FAM211A (11726209_a_at) / Fold change /veh FAM211A (11726209_a_at) / RFU RGS16 (11746705_a_at) / Fold change /veh RGS16 (11746705_a_at) / RFU VCAN (11755009_s_at) / Fold change /veh VCAN (11755009_s_at) / RFU RHOB (11743442_s_at) / Fold change /veh RHOB (11743442_s_at) / RFU RGS16 (11720943_a_at) / Fold change /veh RGS16 (11720943_a_at) / RFU RGS16 (11720944_at) / Fold change /veh RGS16 (11720944_at) / RFU, VPS4B / Fold change vs veh, VPS4B / RFU, CREB1 / Fold change vs veh, CREB1 / RFU, DNAJC13 / Fold change vs veh, DNAJC13 / RFU, GNAQ / Fold change vs veh, GNAQ / RFU, CDK5R1 / Fold change vs veh, CDK5R1 / RFU, ZRANB3 / Fold change vs veh, ZRANB3 / RFU, CUL4A / Fold change vs veh, CUL4A / RFU, CCNY / Fold change vs veh, CCNY / RFU, UFL1 / Fold change vs veh, UFL1 / RFU, COG3 / Fold change vs veh, COG3 / RFU, DIAPH2 / Fold change vs veh, DIAPH2 / RFU, SKA2 / Fold change vs veh, SKA2 / RFU, AFF3 / Fold change vs veh, AFF3 / RFU, LMF1 / Fold change vs veh, LMF1 / RFU, IPO11 / Fold change vs veh, IPO11 / RFU, DFFB / Fold change vs veh, DFFB / RFU, FOXP1 / Fold change vs veh, FOXP1 / RFU, CARD8 / Fold change vs veh, CARD8 / RFU, STRN3 / Fold change vs veh, STRN3 / RFU, ADK / Fold change vs veh, ADK / RFU, RASSF2 / Fold change vs veh, RASSF2 / RFU, WIPF1 / Fold change vs veh, WIPF1 / RFU, LARP1B / Fold change vs veh, LARP1B / RFU, RASA1 / Fold change vs veh, RASA1 / RFU, RB1 / Fold change vs veh, RB1 / RFU, PPFIA1 / Fold change vs veh, PPFIA1 / RFU, MAT2A / Fold change vs veh, MAT2A / RFU, CCT5 / Fold change vs veh, CCT5 / RFU, WDR92 / Fold change vs veh, WDR92 / RFU, CUX1 / Fold change vs veh, CUX1 / RFU, TTC7A / Fold change vs veh, TTC7A / RFU, TMEM135 / Fold change vs veh, TMEM135 / RFU, DEPTOR / Fold change vs veh, DEPTOR / RFU, CPM / Fold change vs veh, CPM / RFU, DNAJB6 / Fold change vs veh, DNAJB6 / RFU, CACNA2D3 / Fold change vs veh, CACNA2D3 / RFU, DTX4 / Fold change vs veh, DTX4 / RFU, TFCP2 / Fold change vs veh, TFCP2 / RFU, GMCL1 /// GMCL1P1 / Fold change vs veh, GMCL1 /// GMCL1P1 / RFU, AEBP2 / Fold change vs veh, AEBP2 / RFU, SNHG1 /// SNORD22 /// SNORD25 /// SNORD26 /// SNORD27 /// SNORD28 /// SNORD29 /// SNORD31 / Fold change vs veh, SNHG1 /// SNORD22 /// SNORD25 /// SNORD26 /// SNORD27 /// SNORD28 /// SNORD29 /// SNORD31 / Fold change (Aza/veh), C12orf56 (ProbeSet 11735607_a_at) / Fold change (ACY-1035/veh), C12orf56 (ProbeSet 11735607_a_at) / Fold change (Aza/veh), FGFR1OP (ProbeSet 11751329_s_at) / Fold change (ACY-1035/veh), FGFR1OP (ProbeSet 11751329_s_at) / Fold change (Aza/veh), VPS36 (ProbeSet 11739960_a_at) / Fold change (ACY-1035/veh), VPS36 (ProbeSet 11739960_a_at) / RFU SYPL1 (11715823_x_at) / Fold change /veh SYPL1 (11715823_x_at) / RFU IGFBP7 (11715501_s_at) / Fold change /veh IGFBP7 (11715501_s_at) / RFU REEP3 (11722064_at) / Fold change /veh REEP3 (11722064_at) / RFU IGLL1 (11728026_x_at) / Fold change /veh IGLL1 (11728026_x_at): dose or concentration left out as unconfirmed
# Conditions: MV-4-11 cells, 48 hours
structure (smiles),measurement,value
Nc1ncn([C@@H]2O[C@H](CO)[C@@H](O)[C@H]2O)c(=O)n1 [azacitidine],RFU CCDC152 (11743942_at),8.41 RFU
